# Measurements as given in patent US20070191324A1, “Methods for treatment or prophylaxis of aldosterone-mediated pathogenic effects in a subject using an epoxy-steroidal aldosterone antagonist” (priority 1999, published 2007).
# Like-named read-outs stand apart in the source and are kept apart here.
# Experiments:
# [1] = tested on: saline-hydrated conscious dogs treated with aldosterone; assay: Antimineralocorticoid action in saline-hydrated conscious dogs treated with aldosterone (Example A-2); format: in vivo; conditions: aldosterone i.v. infusion; antagonist 10 mg/kg orally
# saline-drinking SHRSP = assay: Stroke and cerebrovascular damage in saline-drinking SHRSP (Example A-7); format: in vivo, rat; conditions: 100 mg/kg/day, up to 18.5 weeks of age
# From the text: Fifteen male, 9 weeks of age, saline-drinking SHRSP were included in the experiment. […] A-12). […] Using a semi-quantitative scoring system from 0-4 for cerebral injury (FIG.
# [2] = tested on: saline-loaded adrenalectomized rats treated with aldosterone; assay: Antimineralocorticoid activity in saline-loaded adrenalectomized rats treated with aldosterone (Example A-2); format: in vivo
# Protocol: Methods: The antimineralocorticoid pharmacological activity was determined in saline-loaded adrenalectomized rats treated with aldosterone. […] Urinary sodium, potassium and water excretion were measured.
# [3] = tested on: patients with hypertension and left ventricular hypertrophy; assay: Eplerenone, enalapril and combination in left ventricular hypertrophy, 9 months (Examples A-15, D-4); format: in vivo, human
# From the text: Table […] illustrates forth the above-described dosing scheme. […] Additional laboratory assessments of blood for clinical safety will be done monthly. Routine urinalysis will be done every three months. […] A blood sample for genotyping will be collected at Week 0. At screening and at Month 9, a 12-lead ECG and physical examination will be done. […] In case of early termination, an MRI and blood sample for TSH will be done for those patients who have received double-blind treatment for at least three months. At Weeks 0, 12 and Months 6 and 9, pharmacoeconomic data will be collected on all patients. The primary measure of efficacy is the change from baseline in LVM, as assessed by MRI, in the eplerenone group versus the enalapril group. […] Secondary measures of efficacy will be the following: […] (3) aortic compliance and ventricular filling parameters; and (4) special studies (PIIINP, microalbuminuria, PAI, and tPA). Additionally, the long-term safety and tolerability of the three treatment groups will be compared. […] The study design is illustrated in FIG. D-10. […] Left ventricular mass (LVM) (assayed by MRI), BP, collagen turnover, and tolerability were assessed at the 9-month endpoint.
# [4] = tested on: patients with low-renin hypertension; assay: Eplerenone versus losartan in low-renin hypertension, 16 weeks (Examples A-16, D-5); format: in vivo, human
# From the text: Patients will continue on therapy until Week 16. Table […] illustrates the above-described dosing scheme. […] Plasma renin will be determined at screening; serum aldosterone, plasma renin, and plasma cortisol will be determined at Weeks 0, 8, and 16. […] A 12-lead electrocardiogram will be done at Weeks 0 and 16. Physical examinations will be completed at screening and at Week 16. […] Secondary measures of efficacy will be the following: […] Study design is illustrated in FIG. D-16. […] At Weeks 8 and 16, BP, RAAS hormone profile, and safety were assessed.
# [5] = tested on: patients with mild-to-moderate hypertension; assay: Eplerenone versus enalapril in essential hypertension, 12-month titration-to-effect (Example D-3); format: in vivo, human
# Protocol: The study design is illustrated in FIG. D-6. Patients with mild-to-moderate hypertension (diastolic blood pressure [DBP]≧95 mmHg and <110 mmHg) were randomized to receive initially EPL 50 mg QD (n=253) or ENAL 10 mg QD (n=246). If DBP ≧90 mmHg at Weeks 4, 8, 12, 16, or 20, the dose of study medication was up-titrated incrementally to EPL 100 mg and 200 mg QD, or ENAL 20 mg and 40 mg QD. […] At 24 wks and 12 months, changes in BP, RAAS hormone profile, urinary albumin excretion (urinary albumin: creatinine ratio [UACR]), laboratory tests, safety, and adverse events (AEs) were assessed.
# [6] = Single dose pharmacokinetics, Japan and Ex-Japan trials (Example A-11); format: in vivo, human; conditions: for Vd/F: male, human, in vivo, oral, single dose, least squares mean, read-out: Vss/F
# Protocol: A total of 76 European subjects and 38 Japanese subjects participated in the single and multiple dose tolerability and food effect trials. Three of the studies were Ex-Japan studies and included doses ranging from 10 mg to 1000 mg. The other two studies were conducted in Japan and included doses ranging from 50 mg to 600 mg.
# The […] trials included (i) a single dose tolerability trial, and (ii) a multiple dose tolerability trial, and (iii) a food effect study.
# Both single dose and multiple dose tolerability trials were conducted in Japan utilizing healthy male Japanese subjects. […] Six subjects who received the 100 mg dose also participated in the food effect treatment arm of the single dose tolerability trial.
# Combining single dose fasting pharmacokinetic data from all five studies, an analysis of variance with factors for country (Japan, Ex-Japan), study nested within country, and dose were performed on the dose-normalized Cmax and AUC values to assess the effect of country (population). Dose normalization was done to the lowest dose (10 mg for single dose, 100 mg for multiple dose). In the absence of intravenous data, the distribution volume (V/F) and clearance (CL/F) parameters are represented as the apparent values and are normalized to 70 kg of body weight. There were no statistically significant differences between the Japan and Ex-Japan trials in any of the pharmacokinetic parameters analyzed.
# No statistically significant differences were noted between the Japan and ex-Japan population for any of the derived parameters evaluated.
# Each panel consisted of six subjects who were given eplerenone and two subjects who were given placebo.
# [7] = 9-month endpoint, forced titration
# [8] = 9-month endpoint, EPL 200 mg, ENAL 40 mg, EPL 200 mg/ENAL 10 mg
# [9] = Week 8 (monotherapy), EPL 100-200 mg QD, LOS 50-100 mg QD
# [10] = Week 16, after allowed addition of HCTZ
# [11] = Week 24, EPL 50-200 mg QD, ENAL 10-40 mg QD titrated
smiles,measurement,setting,value
"COC(=O)[C@@H]1CC2=CC(=O)CC[C@]2(C)[C@@]23O[C@@H]2C[C@@]2(C)[C@@H](CC[C@@]24CCC(=O)O4)[C@H]13 [Eplerenone, Pregn-4-ene-7,21-dicarboxylic acid, 9,11-epoxy-17-hydroxy-3-oxo-, γ-lactone, methyl ester, (7α, 11α, 17β)-]",Na/K Ratio,[1],2.1
same,Urinary Excretion Potassium,[1],11.9 ± 1 mmol/2 h
same,Urinary Excretion Sodium,[1],24.4 ± 3 mmol/2 h
same,stroke signs,saline-drinking SHRSP,no signs of stroke
same,Urinary Na/K ± SEM,[2]; aldosterone & antagonist 1 mg/kg by gavage,2.53 ± 0.23
same,Urinary Na/K ± SEM,[2]; aldosterone & antagonist 3 mg/kg by gavage,4.08 ± 0.26
same,Urinary Na/K ± SEM,[2]; aldosterone & antagonist 10 mg/kg by gavage,4.11 ± 0.27
same,DBP Adjusted mean change,[3]; [7],−10.8 mmHg
same,SBP Adjusted mean change,[3]; [7],−21.0 mmHg
same,decrease from baseline in UACR,[3]; [8],−28.7%
same,decrease from baseline in collagen turnover,[3]; [8],−7.3%
same,patients experiencing coughing,[3]; 9-month study,3.1%
same,LVM Adjusted mean change [g (SE)],"[3]; left ventricular mass by MRI, 9-month endpoint, forced titration (EPL 50-200 mg, ENAL 10-40 mg)",−14.5 (3.36) g
same,regressing LVH and reducing collagen turnover,[3]; monotherapy,as effective as enalapril monotherapy
same,cumulative percentage of patients requiring HCTZ add-on therapy,[4]; 16 weeks,32.5%
same,increase in active renin levels,[4]; Week 8,+50.1%
same,increase in serum aldosterone levels,[4]; Week 8,+74.7%
same,mean change from baseline in DBP,[4]; [9],−9.3 mmHg
same,mean change from baseline in SBP,[4]; [9],−15.8 mmHg
same,increase in active renin levels,[4]; Week 16,+73.0%
same,increase in serum aldosterone levels,[4]; Week 16,+89.8%
same,mean change from baseline in DBP,[4]; [10],−10.8 mmHg
same,mean change from baseline in SBP,[4]; [10],−18.3 mmHg
same,safety and tolerability,[4]; in vivo,safe and well tolerated
same,patients experiencing coughing,[5]; 12-month study,2.4%
same,patients experiencing hyperglycemia,[5]; 12-month study,0.0%
same,patients experiencing urinary tract infections (UTI),[5]; 12-month study,0.4%
same,DBP change,[5]; 12 months,−13.3 mmHg
same,SBP change,[5]; 12 months,−16.5 mmHg
same,DBP change,[5]; [11],−11.2 mmHg
same,SBP change,[5]; [11],−14.5 mmHg
same,reduction in UACR,"[5]; Week 24, patients with baseline UACR ≧30 mg/g",−61.5%
same,safety and tolerability,[5]; in vivo,safe and well tolerated
same,clinical lab abnormalities and adverse events,"[6]; healthy Japanese male subjects, single doses 50-600 mg",no adverse events were reported
same,Vd/F,[6]; Ex-Japan,80.6 L
same,Vd/F,[6]; Japan,80.1 L
